Measurements reported in US20230416228A1 (Forkhead Biotherapeutics, Inc., priority 2020, published 2023).

Biological target: T1, human FOXO1 (constitutively active form Thr24Ala, Ser256Ala, Ser319Ala) (Homo sapiens, UniProt Q12778, S256A/S319A/T24A)
T1 construct: expressed in transfected cells; host or cells: HEK293 cells transfected with pcDNA3.1 plasmid
Assay: FOXO1 inhibitor activity assay: cell-based transcriptional (luciferase) reporter assay in HEK293 cells
Conditions: HEK293 cells transfected with insulin response element firefly luciferase reporter, FOXO1 and Renilla luciferase; 10-point dose response 50 μM to 2.5 nM; 24 hours
Method: The inhibitory activities of compounds on FOXO1 were determined by a cell-based transcriptional reporter assay. HEK293 cells were plated onto either 384-well poly-D-lysine coated plates (at 7500 cells per well) or 96-well plates (at 20000 cells per well) in low glucose Eagle's Minimum Essential Medium (EMEM) containing 1% fetal bovine serum, and incubated overnight at 37° C. and 5% CO2. […] Duplicate wells were included for each treatment condition. Cells were incubated for 24 hours at 37° C. and 5% CO2. Luciferase activities in each well were measured using Dual-Glog Luciferase Assay System (Promega) according to manufacturer's protocol and an Envision plate reader suitable for luminescence detection. Firefly luciferase activity was divided by Renilla luciferase activity to calculate a ratio for each well. The ratio in wells containing cells transfected with all 3 plasmids listed above and receiving only DMSO without compound addition was set to 100%. The ratio in wells containing cells transfected with plasmid (1), plasmid (3), and pcDNA3.1 containing the open reading frame of red fluorescent protein (instead of human FOXO1) and treated with DMSO was set to 0%. The ratio in each well receiving compound treatment was normalized and expressed as a percentage. Data were fit by 4-parameter logistic regression to determine IC50 and maximal inhibition values. Each compound was tested in a minimum of 2 independent experiments.

T1 sequence (Q12778 whole entry T24A/S256A/S319A): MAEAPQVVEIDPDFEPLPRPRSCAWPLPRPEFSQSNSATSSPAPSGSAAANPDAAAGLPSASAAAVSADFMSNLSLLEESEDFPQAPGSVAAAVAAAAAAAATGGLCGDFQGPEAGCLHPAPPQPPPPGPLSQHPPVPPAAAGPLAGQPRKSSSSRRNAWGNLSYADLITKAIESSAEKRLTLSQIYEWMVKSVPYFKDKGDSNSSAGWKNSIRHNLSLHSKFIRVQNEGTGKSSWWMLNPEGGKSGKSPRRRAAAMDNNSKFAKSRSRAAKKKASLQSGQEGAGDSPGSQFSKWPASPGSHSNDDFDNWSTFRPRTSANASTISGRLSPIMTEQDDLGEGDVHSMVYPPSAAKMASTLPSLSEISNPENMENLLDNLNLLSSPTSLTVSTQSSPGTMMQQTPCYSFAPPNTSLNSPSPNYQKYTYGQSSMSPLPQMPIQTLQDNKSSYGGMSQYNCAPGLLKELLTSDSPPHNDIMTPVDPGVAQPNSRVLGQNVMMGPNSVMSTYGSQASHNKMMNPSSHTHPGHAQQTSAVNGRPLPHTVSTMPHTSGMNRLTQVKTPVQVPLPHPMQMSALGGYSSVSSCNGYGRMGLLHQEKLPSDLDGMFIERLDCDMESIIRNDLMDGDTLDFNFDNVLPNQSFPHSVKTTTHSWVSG

IC50 [nM]	SMILES
> 1000	CCOC(=O)COc1ccc(C(=O)Nc2cc(-c3nc4ccccc4[nH]3)[nH]n2)cc1Cl [Compound A-57, ethyl 2-[4-[[5-(1H-benzimidazol-2-yl)-1H-pyrazol-3-yl]carbamoyl]-2-chloro-phenoxy]acetate]
< 100	COCCCOc1ccc(C(=O)Nc2cc(-c3nc4cc(OC)ccc4[nH]3)[nH]n2)cc1Cl [Compound A-58, 3-chloro-N-[5-(5-methoxy-1H-benzimidazol-2-yl)-1H-pyrazol-3-yl]-4-(3-methoxypropoxy)benzamide]
300 to 1000	CC1(O)CCCN(c2ccc(C(=O)Nc3cc(-c4nc5ccccc5[nH]4)[nH]n3)cn2)C1 (stereo not drawn) [Compound A-59, N-[5-(1H-benzimidazol-2-yl)-1H-pyrazol-3-yl]-6-(3-hydroxy-3-methyl-1-piperidyl)pyridine-3-carboxamide]
> 1000	O=C(Nc1cc(-c2nc3ccccc3[nH]2)[nH]n1)c1ccc(N2C[C@H](O)[C@@H](O)C2)nc1 [Compound A-60, N-[5-(1H-benzimidazol-2-yl)-1H-pyrazol-3-yl]-6-[(3S,4S)-3,4-dihydroxy-pyrrolidin-1-yl]pyridine-3-carboxamide]
100 to 300	CCOCCNc1ccc(C(=O)Nc2cc(-c3nc4ccccc4[nH]3)[nH]n2)cn1 [Compound A-61, N-[5-(1H-benzimidazol-2-yl)-1H-pyrazol-3-yl]-6-(2-ethoxyethylamino)-pyridine-3-carboxamide]
> 1000	O=C(O)COc1ccc(C(=O)Nc2cc(-c3nc4ccccc4[nH]3)[nH]n2)cn1 [Compound A-62, 2-[[5-[[5-(1H-benzimidazol-2-yl)-1H-pyrazol-3-yl]carbamoyl]-2-pyridyl]-oxy]acetic acid]
> 1000	C[C@H](CO)Nc1ccc(C(=O)Nc2cc(-c3nc4ccccc4[nH]3)[nH]n2)cn1 [Compound A-63, N-[5-(1H-benzimidazol-2-yl)-1H-pyrazol-3-yl]-6-[[(1R)-2-hydroxy-1-methyl-ethyl]amino]pyridine-3-carboxamide]
> 1000	O=C(Nc1cc(-c2nc3ccccc3[nH]2)[nH]n1)c1ccc(N2CC(O)C2)nc1 [Compound A-64, N-[5-(1H-benzimidazol-2-yl)-1H-pyrazol-3-yl]-6-(3-hydroxyazetidin-1-yl)pyridine-3-carboxamide]
< 100	COC1CN(c2ccc(C(=O)Nc3cc(-c4nc5ccccc5[nH]4)[nH]n3)cn2)C1 [Compound A-65, N-[5-(1H-benzimidazol-2-yl)-1H-pyrazol-3-yl]-6-(3-methoxyazetidin-1-yl)pyridine-3-carboxamide]
300 to 1000	O=C(Nc1cc(-c2nc3ccccc3[nH]2)[nH]n1)c1ccc(N2CCCC(O)C2)nc1 (stereo not drawn) [Compound A-66, N-[5-(1H-benzimidazol-2-yl)-1H-pyrazol-3-yl]-6-(3-hydroxy-1-piperidyl)pyridine-3-carboxamide]
< 100	O=C(Nc1cc(-c2nc3ccccc3[nH]2)[nH]n1)c1ccc(N2CCC(CO)CC2)nc1 [Compound A-67, N-[5-(1H-benzimidazol-2-yl)-1H-pyrazol-3-yl]-6-[4-(hydroxymethyl)-1-piperidyl]pyridine-3-carboxamide]
< 100	O=C(Nc1cc(-c2nc3ccccc3[nH]2)[nH]n1)c1ccc(N2CCCC(CO)C2)nc1 (stereo not drawn) [Compound A-68, N-[5-(1H-benzimidazol-2-yl)-1H-pyrazol-3-yl]-6-[3-(hydroxymethyl)-1-piperidyl]pyridine-3-carboxamide]
300 to 1000	O=C1CN(c2ccc(C(=O)Nc3cc(-c4nc5ccccc5[nH]4)[nH]n3)cn2)CCN1 [Compound A-69, N-[5-(1H-benzimidazol-2-yl)-1H-pyrazol-3-yl]-6-(3-oxopiperazin-1-yl)pyridine-3-carboxamide]
> 1000	CCOC(=O)COc1ccc(C(=O)Nc2cc(-c3nc4ccccc4[nH]3)[nH]n2)cn1 [Compound A-70, ethyl 2-[[5-[[5-(1H-benzimidazol-2-yl)-1H-pyrazol-3-yl]carbamoyl]-2-pyridyl]oxy]acetate]
300 to 1000	COc1ccc(C(=O)Nc2n[nH]c(-c3nc4ccccc4[nH]3)c2Br)cc1Cl [Compound A-71, N-[5-(1H-benzimidazol-2-yl)-4-bromo-1H-pyrazol-3-yl]-3-chloro-4-methoxy-benzamide]
> 1000	O=C(O)COc1ccc(C(=O)Nc2cc(-c3nc4ccccc4[nH]3)[nH]n2)cc1Cl [Compound A-72, 2-[4-[[5-(1H-benzimidazol-2-yl)-1H-pyrazol-3-yl]carbamoyl]-2-chloro-phenoxy]acetic acid]
300 to 1000	COC[C@H](C)Nc1ccc(C(=O)Nc2cc(-c3nc4ccccc4[nH]3)[nH]n2)cn1 [Compound A-73, N-[5-(1H-benzimidazol-2-yl)-1H-pyrazol-3-yl]-6-[[(1S)-2-methoxy-1-methyl-ethyl]amino]pyridine-3-carboxamide]

IC50 [nM]	SMILES
> 1000	COc1ccc(C(=O)Nc2n[nH]c(-c3nc4ccccc4[nH]3)c2Cl)cc1Cl [Compound A-74, N-[5-(1H-benzimidazol-2-yl)-4-chloro-1H-pyrazol-3-yl]-3-chloro-4-methoxy-benzamide]
< 100	COCCOc1ccc(C(=O)Nc2cc(-c3nc4ccccc4[nH]3)[nH]n2)cc1OC [Compound A-75, N-[5-(1H-benzimidazol-2-yl)-1H-pyrazol-3-yl]-3-methoxy-4-(2-methoxyethoxy)benzamide]
> 1000	COc1ccc(C(=O)Nc2n[nH]c(-c3nc4ccccc4[nH]3)c2F)cc1Cl [Compound A-76, N-[5-(1H-benzimidazol-2-yl)-4-fluoro-1H-pyrazol-3-yl]-3-chloro-4-methoxy-benzamide]
100 to 300	O=C(Nc1cc(-c2nc3ccccc3[nH]2)[nH]n1)c1ccc(NCCO)c(Cl)c1 [Compound A-78, N-[5-(1H-benzimidazol-2-yl)-1H-pyrazol-3-yl]-3-chloro-4-(2-hydroxy-ethylamino)benzamide]
< 100	COCCOc1ccc(C(=O)Nc2cc(-c3nc4cc(OC)ccc4[nH]3)[nH]n2)cc1Cl [Compound A-79, 3-chloro-N-[5-(5-methoxy-1H-benzimidazol-2-yl)-1H-pyrazol-3-yl]-4-(2-methoxyethoxy)benzamide]
< 100	O=C(Nc1cc(-c2nc3cc(F)ccc3[nH]2)[nH]n1)c1ccc(N2CCC(CO)CC2)nc1 [Compound A-80, N-[5-(5-fluoro-1H-benzimidazol-2-yl)-1H-pyrazol-3-yl]-6-[4-(hydroxymethyl)-1-piperidyl]pyridine-3-carboxamide]
100 to 300	O=C(Nc1cc(-c2nc3cc(F)ccc3[nH]2)[nH]n1)c1ccc(N2CCC(O)CC2)nc1 [Compound A-81, N-[5-(5-fluoro-1H-benzimidazol-2-yl)-1H-pyrazol-3-yl]-6-(4-hydroxy-1-piperidyl)pyridine-3-carboxamide]
< 100	O=C(Nc1cc(-c2nc3cc(F)ccc3[nH]2)[nH]n1)c1ccc(N2CCOCC2)nc1 [Compound A-82, N-[5-(5-fluoro-1H-benzimidazol-2-yl)-1H-pyrazol-3-yl]-6-morpholino-pyridine-3-carboxamide]
< 100	O=C(Nc1cc(-c2nc3cccc(F)c3[nH]2)[nH]n1)c1ccc(N2CCC(CO)CC2)nc1 [Compound A-83, N-[5-(7-fluoro-1H-benzimidazol-2-yl)-1H-pyrazol-3-yl]-6-[4-(hydroxymethyl)-1-piperidyl]pyridine-3-carboxamide]
< 100	O=C(Nc1cc(-c2nc3cccc(F)c3[nH]2)[nH]n1)c1ccc(N2CCOCC2)nc1 [Compound A-85, N-[5-(7-fluoro-1H-benzimidazol-2-yl)-1H-pyrazol-3-yl]-6-morpholino-pyridine-3-carboxamide]
> 1000	O=C(Nc1cc(-c2nc3cc(Cl)ccc3[nH]2)[nH]n1)c1ccc(N2CCC(CO)CC2)nc1 [Compound A-86, N-[5-(5-chloro-1H-benzimidazol-2-yl)-1H-pyrazol-3-yl]-6-[4-(hydroxymethyl)-1-piperidyl]pyridine-3-carboxamide]
> 1000	O=C(Nc1cc(-c2nc3cc(Cl)ccc3[nH]2)[nH]n1)c1ccc(N2CCC(O)CC2)nc1 [Compound A-87, N-[5-(5-chloro-1H-benzimidazol-2-yl)-1H-pyrazol-3-yl]-6-(4-hydroxy-1-piperidyl)pyridine-3-carboxamide]
> 1000	O=C(Nc1cc(-c2nc3cc(Cl)ccc3[nH]2)[nH]n1)c1ccc(N2CCOCC2)nc1 [Compound A-88, N-[5-(5-chloro-1H-benzimidazol-2-yl)-1H-pyrazol-3-yl]-6-morpholino-pyridine-3-carboxamide]
> 1000	O=C(Nc1cc(-c2nc3cc(Br)ccc3[nH]2)[nH]n1)c1ccc(N2CCC(CO)CC2)nc1 [Compound A-89, N-[5-(5-bromo-1H-benzimidazol-2-yl)-1H-pyrazol-3-yl]-6-[4-(hydroxymethyl)-1-piperidyl]pyridine-3-carboxamide]
> 1000	O=C(Nc1cc(-c2nc3cc(Br)ccc3[nH]2)[nH]n1)c1ccc(N2CCC(O)CC2)nc1 [Compound A-90, N-[5-(5-bromo-1H-benzimidazol-2-yl)-1H-pyrazol-3-yl]-6-(4-hydroxy-1-piperidyl)pyridine-3-carboxamide]
> 1000	O=C(Nc1cc(-c2nc3cc(Br)ccc3[nH]2)[nH]n1)c1ccc(N2CCOCC2)nc1 [Compound A-91, N-[5-(5-bromo-1H-benzimidazol-2-yl)-1H-pyrazol-3-yl]-6-morpholino-pyridine-3-carboxamide]
